{"source": "PubChem BioAssay (NCI)", "assay_in_all_cases": "growth of human tumour cells (NCI), 48 h", "key": {"786-0 renal": {"test_system": "786-0 renal"}, "A498 renal": {"test_system": "A498 renal"}, "A549 NSCLC": {"test_system": "A549 NSCLC"}, "ACHN renal": {"test_system": "ACHN renal"}, "BT-549 breast": {"test_system": "BT-549 breast"}, "CAKI-1 renal": {"test_system": "CAKI-1 renal"}, "CCRF-CEM leukemia": {"test_system": "CCRF-CEM leukemia"}, "DU-145 prostate": {"test_system": "DU-145 prostate"}, "EKVX NSCLC": {"test_system": "EKVX NSCLC"}, "HCC-2998 colon": {"test_system": "HCC-2998 colon"}, "HCT-116 colon": {"test_system": "HCT-116 colon"}, "HCT-15 colon": {"test_system": "HCT-15 colon"}, "HL-60(TB) leukemia": {"test_system": "HL-60(TB) leukemia"}, "HOP-62 NSCLC": {"test_system": "HOP-62 NSCLC"}, "HOP-92 NSCLC": {"test_system": "HOP-92 NSCLC"}, "HS 578T breast": {"test_system": "HS 578T breast"}, "HT29 colon": {"test_system": "HT29 colon"}, "IGROV1 ovarian": {"test_system": "IGROV1 ovarian"}, "K-562 leukemia": {"test_system": "K-562 leukemia"}, "KM12 colon": {"test_system": "KM12 colon"}, "LOX IMVI melanoma": {"test_system": "LOX IMVI melanoma"}, "M14 melanoma": {"test_system": "M14 melanoma"}, "MALME-3M melanoma": {"test_system": "MALME-3M melanoma"}, "MCF7 breast": {"test_system": "MCF7 breast"}, "MDA-MB-231 breast": {"test_system": "MDA-MB-231 breast"}, "MDA-MB-435": {"test_system": "MDA-MB-435"}, "MOLT-4 leukemia": {"test_system": "MOLT-4 leukemia"}, "NCI-H226 lung": {"test_system": "NCI-H226 lung"}, "NCI-H23 lung": {"test_system": "NCI-H23 lung"}}, "note": "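Cultured in 96-well plates, cells were exposed to test compound for 48 hours across five concentrations. GI50 is the concentration that inhibits growth by half. The concentration for full growth arrest is given as TGI.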"}
{"smiles": "Nc1nccc2c1ccn2-c1cccc(NC(=O)c2ccc(N3CCOCC3)c(C(F)(F)F)c2)c1", "values": [{"measurement": "GI50", "setting": "786-0 renal", "value": 0.905, "unit": "µM"}, {"measurement": "TGI", "setting": "786-0 renal", "value": 2.58, "unit": "µM"}, {"measurement": "GI50", "setting": "A498 renal", "value": 0.304, "unit": "µM"}, {"measurement": "TGI", "setting": "A498 renal", "value": 2.05, "unit": "µM"}, {"measurement": "GI50", "setting": "A549 NSCLC", "value": 0.922, "unit": "µM"}, {"measurement": "TGI", "setting": "A549 NSCLC", "value": "> 50", "unit": "µM"}, {"measurement": "GI50", "setting": "ACHN renal", "value": 0.826, "unit": "µM"}, {"measurement": "TGI", "setting": "ACHN renal", "value": 11.5, "unit": "µM"}, {"measurement": "GI50", "setting": "BT-549 breast", "value": 1.04, "unit": "µM"}, {"measurement": "TGI", "setting": "BT-549 breast", "value": 5.5, "unit": "µM"}, {"measurement": "GI50", "setting": "CAKI-1 renal", "value": 0.531, "unit": "µM"}, {"measurement": "TGI", "setting": "CAKI-1 renal", "value": "> 19", "unit": "µM"}, {"measurement": "GI50", "setting": "CCRF-CEM leukemia", "value": 1.01, "unit": "µM"}, {"measurement": "TGI", "setting": "CCRF-CEM leukemia", "value": "> 50", "unit": "µM"}, {"measurement": "GI50", "setting": "DU-145 prostate", "value": 1.22, "unit": "µM"}, {"measurement": "TGI", "setting": "DU-145 prostate", "value": 4.15, "unit": "µM"}, {"measurement": "GI50", "setting": "EKVX NSCLC", "value": 1.99, "unit": "µM"}, {"measurement": "TGI", "setting": "EKVX NSCLC", "value": "> 50", "unit": "µM"}, {"measurement": "GI50", "setting": "HCC-2998 colon", "value": 1.63, "unit": "µM"}, {"measurement": "TGI", "setting": "HCC-2998 colon", "value": "> 44.5", "unit": "µM"}, {"measurement": "GI50", "setting": "HCT-116 colon", "value": 0.677, "unit": "µM"}, {"measurement": "TGI", "setting": "HCT-116 colon", "value": 8.66, "unit": "µM"}, {"measurement": "GI50", "setting": "HCT-15 colon", "value": 0.443, "unit": "µM"}, {"measurement": "TGI", "setting": "HCT-15 colon", "value": "> 22.7", "unit": "µM"}, {"measurement": "GI50", "setting": "HL-60(TB) leukemia", "value": 1.09, "unit": "µM"}, {"measurement": "TGI", "setting": "HL-60(TB) leukemia", "value": 7.83, "unit": "µM"}, {"measurement": "GI50", "setting": "HOP-62 NSCLC", "value": 1.27, "unit": "µM"}, {"measurement": "TGI", "setting": "HOP-62 NSCLC", "value": "> 25.8", "unit": "µM"}, {"measurement": "GI50", "setting": "HOP-92 NSCLC", "value": 0.347, "unit": "µM"}, {"measurement": "TGI", "setting": "HOP-92 NSCLC", "value": 3.23, "unit": "µM"}, {"measurement": "GI50", "setting": "HS 578T breast", "value": 0.34, "unit": "µM"}, {"measurement": "TGI", "setting": "HS 578T breast", "value": 2.43, "unit": "µM"}, {"measurement": "GI50", "setting": "HT29 colon", "value": 0.32, "unit": "µM"}, {"measurement": "TGI", "setting": "HT29 colon", "value": 1.45, "unit": "µM"}, {"measurement": "GI50", "setting": "IGROV1 ovarian", "value": 0.869, "unit": "µM"}, {"measurement": "TGI", "setting": "IGROV1 ovarian", "value": "> 46.5", "unit": "µM"}, {"measurement": "GI50", "setting": "K-562 leukemia", "value": 0.233, "unit": "µM"}, {"measurement": "TGI", "setting": "K-562 leukemia", "value": "> 39.4", "unit": "µM"}, {"measurement": "GI50", "setting": "KM12 colon", "value": 0.313, "unit": "µM"}, {"measurement": "TGI", "setting": "KM12 colon", "value": 2.73, "unit": "µM"}, {"measurement": "GI50", "setting": "LOX IMVI melanoma", "value": 0.997, "unit": "µM"}, {"measurement": "TGI", "setting": "LOX IMVI melanoma", "value": "> 16.2", "unit": "µM"}, {"measurement": "GI50", "setting": "M14 melanoma", "value": 0.788, "unit": "µM"}, {"measurement": "TGI", "setting": "M14 melanoma", "value": 7.6, "unit": "µM"}, {"measurement": "GI50", "setting": "MALME-3M melanoma", "value": 0.634, "unit": "µM"}, {"measurement": "TGI", "setting": "MALME-3M melanoma", "value": 16.7, "unit": "µM"}, {"measurement": "GI50", "setting": "MCF7 breast", "value": 0.181, "unit": "µM"}, {"measurement": "TGI", "setting": "MCF7 breast", "value": "> 18.5", "unit": "µM"}, {"measurement": "GI50", "setting": "MDA-MB-231 breast", "value": 0.874, "unit": "µM"}, {"measurement": "TGI", "setting": "MDA-MB-231 breast", "value": 2.86, "unit": "µM"}, {"measurement": "GI50", "setting": "MDA-MB-435", "value": 0.163, "unit": "µM"}, {"measurement": "TGI", "setting": "MDA-MB-435", "value": "> 50", "unit": "µM"}, {"measurement": "GI50", "setting": "MOLT-4 leukemia", "value": 1.7, "unit": "µM"}, {"measurement": "TGI", "setting": "MOLT-4 leukemia", "value": "> 22.8", "unit": "µM"}, {"measurement": "GI50", "setting": "NCI-H226 lung", "value": 1.74, "unit": "µM"}, {"measurement": "TGI", "setting": "NCI-H226 lung", "value": 18.1, "unit": "µM"}, {"measurement": "GI50", "setting": "NCI-H23 lung", "value": 1.16, "unit": "µM"}]}
